Test results from US10219516B2, “Molecules having pesticidal utility, and intermediates, compositions, and processes, related thereto” (priority 2015, dated 2019).
Read-outs that look alike come from different tables or passages of the source.

Experiments:
Assay type in all cases: in vivo
[1] = tested on: Beet Armyworm (Spodoptera exigua, LAPHEG); assay: Bioassay on Beet Armyworm (BAW), 128-well diet tray assay
Summary of the method: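 In a 128-well format, eight wells per compound received a surface dose of 50 μg/cm^2 on artificial diet. After drying, each well got one to five second instar larvae, held at 25° C. with 14:10 photoperiod. Mortality percentages after five to seven days were averaged.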

[2] = tested on: Green Peach Aphid (Myzus persicae, MYZUPE); assay: Bioassay on Green Peach Aphid (GPA), foliar spray on infested cabbage seedlings; conditions: 72 h
Experimental: Certain molecules disclosed in this document were tested against GPA using procedures described in the following example. In the reporting of the results, the “GPA & YFM Rating Table” was used (See Table Section).
Cabbage seedlings grown in 3-inch pots, with 2-3 small (3-5 cm) true leaves, were used as test substrate. The seedlings were infested with 20-50 GPA (wingless adult and nymph stages) one day prior to chemical application. Four pots with individual seedlings were used for each treatment. Test molecules (2 mg) were dissolved in 2 mL of acetone/methanol (1:1) solvent, forming stock solutions of 1000 ppm test molecule. The stock solutions were diluted 5× with 0.025% Tween 20 in water to obtain the solution at 200 ppm test molecule. A hand-held aspirator-type sprayer was used for spraying a solution to both sides of […] leaves until runoff. Reference plants (solvent check) were sprayed with the diluent only containing 20% by volume of acetone/methanol (1:1) solvent. Treated plants were held in a holding room for three days at approximately 25° C. and ambient relative humidity (RH) prior to grading. Evaluation was conducted by counting the number of live aphids per plant under a microscope. Percent control was measured using Abbott's correction formula (W. S. Abbott, “A Method of Computing the Effectiveness of an Insecticide” 3. Econ. Entomol. 18 (1925), pp. 265-267) as follows. Corrected % Control=100*(X−Y)/X where X=No. of live aphids on solvent check plants and Y=No. of live aphids on treated plants. The results are indicated in the table entitled “Table ABC: Biological Results” (See Table Section).

[3] = tested on: Cabbage Looper (Trichoplusia ni, TRIPNI); assay: Bioassay on Cabbage Looper (CL), 128-well diet tray assay; conditions: Trichoplusia ni
Summary of the method: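 Test molecule is dissolved in 90:10 acetone-water and applied at 50 μg/cm^2 onto artificial diet, then dried. One to five second-instar larvae go into each of eight wells. Trays, sealed but vented, stay at 25° C., 14:10 light-dark, five to seven days, after which mortality is averaged.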

[4] = tested on: Yellow Fever Mosquito (Aedes aegypti, AEDSAE); assay: Bioassay on Yellow Fever Mosquito (YFM), 96-well plate larval assay; conditions: Yellow Fever Mosquito, 96-well plate larval assay
Summary of the method: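 Compound stocks at 4000 ppm in DMSO were diluted with 90:10 water/acetone, and 15 μL aliquots were dispensed into six replicate plates. About 1-day-old larvae in liver-powder water were added per well. Plates were covered and held at room temperature for 3 days before each well was scored for mortality.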

[5] = Species BAW (Beet Armyworm), read-out: BAW (Biological Results, rating)
[6] = foliar, Species GPA (Green Peach Aphid), read-out: GPA (Biological Results, rating)
[7] = Species CL (Cabbage Looper), read-out: CL (Biological Results, rating)
[8] = Beet Armyworm, 128-well diet tray assay, read-out: BAW rating
[9] = Cabbage Looper, 128-well diet tray assay, read-out: CL rating

| Structure (SMILES) | pest or weed control at 50 µg/cm2 [1, 5] | pest or weed control at 200 µg/mL [2, 6] | pest or weed control at 50 µg/cm2 [3, 7] | pest or weed control at 200 µg/mL ([2]; Green Peach Aphid, foliar spray on cabbage seedlings, read-out: GPA rating) | pest or weed control at 50 µg/cm2 [1, 8] | YFM rating [4] | pest or weed control at 50 µg/cm2 [3, 9] |
| --- | --- | --- | --- | --- | --- | --- | --- |
| O=C(Nc1ccc(Cl)cc1)c1cc(NC(=O)[C@H]2[C@H](c3cc(Cl)cc(Cl)c3)C2(Cl)Cl)ccc1Cl (relative stereo) [F7, trans-2-Chloro-N-(4-chlorophenyl)-5-(2,2-dichloro-3-(3,5-dichlorophenyl)cyclopropane-1-carboxamido)benzamide] | 50 to 100% | 0 to 80% | 50 to 100% |  |  |  |  |
| O=C(Nc1ccc(F)cc1Cl)c1cc(NC(=O)[C@H]2[C@H](c3cc(Cl)cc(Cl)c3)C2(Cl)Cl)ccc1Cl (relative stereo) [F8, trans-2-Chloro-N-(2-chloro-4-fluorophenyl)-5-(2,2-dichloro-3-(3,5-dichlorophenyl)cyclopropane-1-carboxamido)benzamide] | 50 to 100% | 80 to 100% | 50 to 100% |  |  |  |  |
| O=C(Nc1ccc(F)cc1)c1cc(NC(=O)[C@H]2[C@H](c3cc(Cl)cc(Cl)c3)C2(Cl)Cl)ccc1Br (relative stereo) [F11, trans-2-Bromo-5-(2,2-dichloro-3-(3,5-dichlorophenyl)cyclopropane-1-carboxamido)-N-(4-fluorophenyl)benzamide] | 50 to 100% | 0 to 80% | 50 to 100% |  |  |  |  |
| CN(C(=O)c1cc(NC(=O)[C@H]2[C@H](c3cc(Cl)cc(Cl)c3)C2(Cl)Cl)ccc1F)c1ccc(F)cc1 (relative stereo) [F45, trans-5-(2,2-Dichloro-3-(3,5-dichlorophenyl)cyclopropane-1-carboxamido)-2-fluoro-N-(4-fluorophenyl)-N-methylbenzamide] | 50 to 100% | 0 to 80% | 50 to 100% |  |  |  |  |
| CC(C)(C)OC(=O)Nc1cc(C(F)(F)F)cc(NC(=O)c2cc(NC(=O)[C@H]3[C@H](c4cc(Cl)cc(Cl)c4)C3(Cl)Cl)ccc2Cl)n1 (relative stereo) [F507, tert-Butyl (6-(2-chloro-5-(trans-2,2-dichloro-3-(3,5-dichlorophenyl)cyclopropane-1-carboxamido)benzamido)-4-(trifluoromethyl)pyridin-2-yl)carbamate] |  |  |  | 0 to 80% |  |  |  |
| O=C(Nc1ccc(F)cc1F)c1cc(NC(=O)C2C(c3ccc(Cl)c(F)c3)C2(Cl)Cl)ccc1Cl (stereo not drawn) [PF36, 2-Chloro-5-(trans)-2,2-dichloro-3-(4-chloro-3-fluorophenyl)cyclopropane-1-carboxamido)-N-(2,4-difluorophenyl)benzamide] |  |  |  |  | 50 to 100% | A (80-100) | 50 to 100% |
| O=C(Nc1ccc(F)cc1)c1cc(NC(=O)C2C(c3cc(Cl)cc(Cl)c3)C2(F)Br)ccc1Cl (stereo not drawn) [PF51, 5-(trans)-2-Bromo-3-(3,5-dichlorophenyl)-2-fluorocyclopropane-1-carboxamido)-2-chloro-N-(4-fluorophenyl)benzamide] |  |  |  |  | 50 to 100% | B (More than 0-Less than 80) | 50 to 100% |
| COc1cc(NC(=O)c2cc(NC(=O)C3C(c4cc(Cl)cc(Cl)c4)C3(Cl)Cl)ccc2Cl)ccc1Cl (stereo not drawn) [PF114, 2-Chloro-N-(4-chloro-3-methoxyphenyl)-5-(trans)-2,2-dichloro-3-(3,5-dichlorophenyl)cyclopropane-1-carboxamido)benzamide] |  |  |  |  | 50 to 100% | A (80-100) | 50 to 100% |
| O=C(Nc1ccc(Br)c(F)c1)c1cc(NC(=O)C2C(c3cc(Cl)cc(Cl)c3)C2(Cl)Cl)ccc1Cl (stereo not drawn) [PF115, N-(4-Bromo-3-fluorophenyl)-2-chloro-5-(trans)-2,2-dichloro-3-(3,5-dichlorophenyl)cyclopropane-1-carboxamido)benzamide] |  |  |  |  | 50 to 100% | A (80-100) | 50 to 100% |
| O=C(Nc1ccc(Cl)cc1F)c1cc(NC(=O)C2C(c3cc(Cl)cc(Cl)c3)C2(Cl)Cl)ccc1Cl (stereo not drawn) [PF116, 2-Chloro-N-(4-chloro-2-fluorophenyl)-5-(trans)-2,2-dichloro-3-(3,5-dichlorophenyl)cyclopropane-1-carboxamido)benzamide] |  |  |  |  | 50 to 100% | B (More than 0-Less than 80) | 50 to 100% |
| O=C(Nc1ccc(Cl)c(Cl)c1)c1cc(NC(=O)C2C(c3cc(Cl)cc(Cl)c3)C2(Cl)Cl)ccc1Cl (stereo not drawn) [PF117, 2-Chloro-5-(trans)-2,2-dichloro-3-(3,5-dichlorophenyl)cyclopropane-1-carboxamido)-N-(3,4-dichlorophenyl)benzamide] |  |  |  |  | 50 to 100% | A (80-100) | 50 to 100% |
| O=C(Nc1cc(F)ccc1F)c1cc(NC(=O)C2C(c3cc(Cl)cc(Cl)c3)C2(Cl)Cl)ccc1Cl (stereo not drawn) [PF118, 2-Chloro-5-(trans)-2,2-dichloro-3-(3,5-dichlorophenyl)cyclopropane-1-carboxamido)-N-(2,5-difluorophenyl)benzamide] |  |  |  |  | 50 to 100% | B (More than 0-Less than 80) | 50 to 100% |
| O=C(Nc1ccc(F)c(Cl)c1)c1cc(NC(=O)C2C(c3cc(Cl)cc(Cl)c3)C2(Cl)Cl)ccc1Cl (stereo not drawn) [PF122, 2-Chloro-N-(3-chloro-4-fluorophenyl)-5-(trans)-2,2-dichloro-3-(3,5-dichlorophenyl)cyclopropane-1-carboxamido)benzamide] |  |  |  |  | 50 to 100% | B (More than 0-Less than 80) | 50 to 100% |
| O=C(Nc1ccc(Cl)c(F)c1)c1cc(NC(=O)C2C(c3cc(Cl)cc(Cl)c3)C2(Cl)Cl)ccc1Cl (stereo not drawn) [PF123, 2-Chloro-N-(4-chloro-3-fluorophenyl)-5-(trans)-2,2-dichloro-3-(3,5-dichlorophenyl)cyclopropane-1-carboxamido)benzamide] |  |  |  |  | 50 to 100% | A (80-100) | 50 to 100% |
| C#Cc1cccc(NC(=O)c2cc(NC(=O)C3C(c4cc(Cl)cc(Cl)c4)C3(Cl)Cl)ccc2Cl)c1 (stereo not drawn) [PF124, 2-Chloro-5-(trans)-2,2-dichloro-3-(3,5-dichlorophenyl)cyclopropane-1-carboxamido)-N-(3-ethynylphenyl)benzamide] |  |  |  |  | 50 to 100% | A (80-100) | 50 to 100% |
| Cc1ccc(NC(=O)c2cc(NC(=O)C3C(c4cc(Cl)cc(Cl)c4)C3(Cl)Cl)ccc2Cl)cc1Cl (stereo not drawn) [PF125, 2-Chloro-N-(3-chloro-4-methylphenyl)-5-(trans)-2,2-dichloro-3-(3,5-dichlorophenyl)cyclopropane-1-carboxamido)benzamide] |  |  |  |  | 50 to 100% | A (80-100) | 50 to 100% |
| O=C(Nc1ccc2cc[nH]c2c1)c1cc(NC(=O)C2C(c3cc(Cl)cc(Cl)c3)C2(Cl)Cl)ccc1Cl (stereo not drawn) [PF126, 2-Chloro-5-(trans)-2,2-dichloro-3-(3,5-dichlorophenyl)cyclopropane-1-carboxamido)-N-(1H-indol-6-yl)benzamide] |  |  |  |  | 50 to 100% | A (80-100) | 50 to 100% |
| O=C(Nc1ccc(Cl)c(Cl)c1F)c1cc(NC(=O)C2C(c3cc(Cl)cc(Cl)c3)C2(Cl)Cl)ccc1Cl (stereo not drawn) [PF127, 2-Chloro-N-(3,4-dichloro-2-fluorophenyl)-5-(trans)-2,2-dichloro-3-(3,5-dichlorophenyl)cyclopropane-1-carboxamido)benzamide] |  |  |  |  | 50 to 100% | A (80-100) | 50 to 100% |
| O=C(Nc1nnc(Br)s1)c1cc(NC(=O)C2C(c3cc(Cl)cc(Cl)c3)C2(Cl)Cl)ccc1Cl (stereo not drawn) [PF133, trans-N-(5-bromo-1,3,4-thiadiazol-2-yl-2-chloro-5-(2,2-dichloro-3-(3,5-dichlorophenyl)cyclopropane-1-carboxamido)benzamide] |  |  |  |  | 50 to 100% | A (80-100) | 50 to 100% |
| N#Cc1cc(Cl)cc(C2C(C(=O)Nc3ccc(Cl)c(C(=O)Nc4ccc(F)cc4)c3)C2(Cl)Cl)c1 (stereo not drawn) [PF155, 2-Chloro-5-(trans)-2,2-dichloro-3-(3-chloro-5-cyanophenyl)cyclopropane-1-carboxamido)-N-(4-fluorophenyl)benzamide] |  |  |  |  | 50 to 100% | B (More than 0-Less than 80) | 50 to 100% |
